In PubChem BioAssay (NCI):
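Assay format: 96-well plates, 48-hour exposure. The concentration for full growth arrest is given as TGI.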

Tests used:
Assay in all cases: NCI-60 cell line screen, 48 h
EKVX NSCLC = test system: EKVX NSCLC
SF-268 CNS = test system: SF-268 CNS
UACC-257 melanoma = test system: UACC-257 melanoma
HT29 colon = test system: HT29 colon
COLO 205 colon = test system: COLO 205 colon
SW-620 colon = test system: SW-620 colon
OVCAR-8 ovarian = test system: OVCAR-8 ovarian
HCT-116 colon = test system: HCT-116 colon
TK-10 renal = test system: TK-10 renal
HOP-18 NSCLC = test system: HOP-18 NSCLC
LOX IMVI melanoma = test system: LOX IMVI melanoma
CAKI-1 renal = test system: CAKI-1 renal
A498 renal = test system: A498 renal
HOP-92 NSCLC = test system: HOP-92 NSCLC
XF 498 CNS = test system: XF 498 CNS
K-562 leukemia = test system: K-562 leukemia
HCC-2998 colon = test system: HCC-2998 colon
KM12 colon = test system: KM12 colon
SR leukemia = test system: SR leukemia
HOP-62 NSCLC = test system: HOP-62 NSCLC
SNB-78 CNS = test system: SNB-78 CNS
A549 NSCLC = test system: A549 NSCLC
SF-539 CNS = test system: SF-539 CNS
MOLT-4 leukemia = test system: MOLT-4 leukemia
SK-OV-3 ovarian = test system: SK-OV-3 ovarian
U251 CNS = test system: U251 CNS
OVCAR-4 ovarian = test system: OVCAR-4 ovarian
NCI-H460 lung = test system: NCI-H460 lung
SN12C renal = test system: SN12C renal
IGROV1 ovarian = test system: IGROV1 ovarian
KM20L2 colon = test system: KM20L2 colon
MALME-3M melanoma = test system: MALME-3M melanoma
NCI-H226 lung = test system: NCI-H226 lung
DMS 114 small cell lung = test system: DMS 114 small cell lung
NCI-H23 lung = test system: NCI-H23 lung
CCRF-CEM leukemia = test system: CCRF-CEM leukemia
RXF 393 renal = test system: RXF 393 renal
UO-31 renal = test system: UO-31 renal
UACC-62 melanoma = test system: UACC-62 melanoma
SF-295 CNS = test system: SF-295 CNS
HL-60(TB) leukemia = test system: HL-60(TB) leukemia
SNB-19 CNS = test system: SNB-19 CNS
SK-MEL-28 melanoma = test system: SK-MEL-28 melanoma
SNB-75 CNS = test system: SNB-75 CNS
786-0 renal = test system: 786-0 renal
ACHN renal = test system: ACHN renal
SK-MEL-5 melanoma = test system: SK-MEL-5 melanoma
DLD-1 colon = test system: DLD-1 colon
LXFL 529 NSCLC = test system: LXFL 529 NSCLC
OVCAR-3 ovarian = test system: OVCAR-3 ovarian
M19-MEL melanoma = test system: M19-MEL melanoma
M14 melanoma = test system: M14 melanoma
NCI-H522 lung = test system: NCI-H522 lung
DMS 273 small cell lung = test system: DMS 273 small cell lung
RPMI-8226 leukemia = test system: RPMI-8226 leukemia
HCT-15 colon = test system: HCT-15 colon
SK-MEL-2 melanoma = test system: SK-MEL-2 melanoma
OVCAR-5 ovarian = test system: OVCAR-5 ovarian

Measured: TGI

Cc1c(C(=N)N)oc2ccccc12
not listed: DMS 273 small cell lung | RPMI-8226 leukemia | HCT-15 colon | SK-MEL-2 melanoma | OVCAR-5 ovarian
> 100 µM: all other assays above

CSC1(C)CC2C(CC1N1CCOCC1)C2(C)C (centres undefined)
not listed: EKVX NSCLC | SW-620 colon | LOX IMVI melanoma | CAKI-1 renal | A498 renal | SR leukemia | HOP-62 NSCLC | KM20L2 colon | RXF 393 renal | UACC-62 melanoma | SNB-19 CNS | NCI-H522 lung
> 100 µM: all other assays above

Cc1ccc(C2C(Cl)C(=O)N2n2cnc3ccccc3c2=O)cc1 (centres undefined)
90.4 µM: UO-31 renal
not listed: A498 renal | HOP-92 NSCLC | SF-539 CNS
> 100 µM: all other assays above
